How the values were obtained:
[1] = test system: male Syrian golden hamsters; experiment: golden hamster seed finding model of anxiety; type: in vivo, Mesocricetus auratus
Text: Clavulanic acid (CLAV) is structurally similar to the beta-lactam antibiotics. A most robust and simple bioassay for screening beta-lactams for CNS activity is the golden hamster seed finding model of anxiety. Briefly, hamsters are deprived of food overnight. The following day they are exposed to the additional stress of being taken from their home cage and placed in a novel environment for a few minutes. This manipulation stimulates the release of the stress hormone cortisol (FIG. 13). During their absence from the home cage, sunflower seeds are hidden under the bedding in one of the corners. When returned to the home cage, hamsters routinely scramble along the walls for 1-2 min before settling down, locating and eating the seeds. However, animals treated with the benzodiazepine anxiolytic chlordiazepoxide find seeds in less than 10 sec.
Male, Syrian golden hamsters (Mesocricetus auratus) (120-130 g) obtained from Harlan Sprague-Dawley Laboratories (Indianapolis, Ind.) were housed individually in Plexiglas cages (24 cm×24 cm×20 cm), maintained on a reverse light:dark cycle (14L: 10D; lights on at 19:00 hr) and provided food and water ad libitum. A range of concentrations of CLAV (saline vehicle, 0.1, 1.0, 10, 100 1,000 ng/kg) were tested in six groups of hamsters (4-8/group)(FIG. 1). All tests were conducted during the dark phase of the circadian cycle under dim red illumination. Prior to testing all animals were fasted for 20-24 hrs. Ninety min after intraperitoneal (IP) injection of drug, animals were taken from their home cage and placed into a holding cage for 2 min. During their absence, six sunflower seeds were buried under the bedding in one corner of their home cage. Animals were placed back into their home cage randomly facing any one of the empty corners and timed for their latency to find the seeds in a five min observation period. Latency times were analyzed with a one-way ANOVA followed by Scheffe's post hoc tests. Assumption of equal variances was tested (Hartley's F-max=2.1 p>0.05)
It was hypothesized that CLAV functioned as an anxiolytic in the seed finding assay by blocking NAALADase activity in the brain. If this notion were true then it would be predicted that drugs known to block NAALADase should also enhance seed finding. To this end, animals were treated with N-acetyl-beta-aspartyl-glutamic acid (beta-NAAG), a competitive inhibitor of NAALADase (Serval et al., 1992) and tested in the seed finding model of anxiety. The study was similar to that outlined in Section I with one notable exception. […] Beta-NAAG (FW 304) was given in a dose of 3 ng in a volume of 1 μl saline ICV. The average adult hamster brain weights ca. 1.2 g of which 22% is extracellular fluid. The estimated beta-NAAG concentration was 11 ng/ml or 36 nM.
Two groups of six animals each were fasted overnight as previously described and tested the following day. One group was treated with beta-NAAG and the other saline vehicle and one hr later timed for latency to find the hidden sunflower seeds. A Student t-test for unpaired data was used for statistical comparisons.

male Wistar rats = settings: 10-25 mg/kg, literature; cited from earlier work
male golden hamsters = experiment: resident/intruder paradigm of offensive aggression; type: in vivo, hamster; settings: 3 ng ICV, after the seed finding assay
Text: Agonistic behavior can be classified as either offensive or defensive aggression (Blanchard and Blanchard, 1977; Adams, […]; Albert and Walsh, 1984). Offensive aggression is characterized by an aggressor initiating an attack on an opponent; while, defensive aggression lacks active approach. Both types of aggression have their own unique neurobehavioral systems. The stimuli that elicit offensive and defense attack are different, as are the sequences of behaviors that accompany each agonistic response. […] Offensive aggression is easily studied using male golden hamsters tested in a resident/intruder paradigm, an established model of offensive aggression (Ferris and Potegal 1988) in the context of defending the home burrow. Placing an unfamiliar male hamster into the home cage of another male hamster elicits a well-defined sequence of agonistic behaviors from the resident that includes offensive aggression.
Hamsters are nocturnal and as such all behavioral tests were performed during the first four hrs of the dark phase under dim red illumination. The resident was scored for offensive aggression, e.g., latency to bite the intruder, the total number of bites, total contact time with the intruder and flank marking over a 10 min test period (Ferris and Potegal, 1988). Flank marking is a form of olfactory communication in which a hamsters arches its back and rubs pheromone producing flank glands against objects in the environment (Johnston, 1986).
Five male golden hamsters (130-140 g) were given IP injections of CLAV (200 μg/kg) and saline vehicle in a volume of ca. 0.2 ml. […] Vehicle and CLAV treatments were counter balanced and randomized so all five animals received each treatment separated by at least 48 hrs. Animals were tested 90 min after treatment over a 10 min observation period. Latencies and contact time were analyzed with a two-way ANOVA. Non-parametric data, i.e., number of bites and flank marks were analyzed by Wilcoxon matched-pairs signed-ranks test.
The animals tested in this study were those used in Section IX. After the seed finding assay, beta-NAAG (n=6) and saline vehicle (n=6) treated animals remained in their home cage and were presented with a smaller, male intruder. The resident was scored for latency to bite, bites, contact time and flank marking over a 10 min observation period. Latency to bite and contact time between treatments were compared with Student t-tests. Non-parametric measures of bites and flank marks for beta-NAAG vs vehicle were compared with Mann-Whitney.

[2] = in vivo; cited from earlier work
[3] = test system: neurogenic peptidases (e.g., NAALADases); experiment: delivery of peptide directly into the brain, behavior; type: in vivo; settings: effective amounts directly into the brain

For CNC1=Nc2ccc(Cl)cc2C(c2ccccc2)=[N+]([O-])C1 [CDP, Chlordiazepoxide], the seed finding time ([1]; benzodiazepine anxiolytic, dose not given) is given as “less than 10 sec” and the motor activity (male Wistar rats) is given as “depresses motor activity”.
For CC(=O)N[C@@H](CC(=O)N[C@@H](CCC(=O)O)C(=O)O)C(=O)O [beta-NAAG, N-acetyl-beta-aspartyl-glutamic acid], the “difference in latency to find the seeds vs saline vehicle” value ([1]; 3 ng in 1 μl ICV, one hr) is listed as “significantly (p<0.001) different”, the “measures of offensive aggression (latency to bite, bites, contact time, flank marking) vs vehicle” value (male golden hamsters) is listed as “no significant differences” and the “passage of the blood-brain barrier” value [2] is listed as “does not readily cross the blood-brain barrier”.
With Ala-D-γ-Glu-Lys-D-alanyl-D-alanine the “behavioral characteristics compared with β-lactam compounds” value [3] was “produced the same modified behavioral characteristics”.
